From patent US11744273B2, “Sweetness enhancing volatile compositions and methods of increasing perceived sweetness of a comestible” (University of Florida Research Foundation, Inc., priority 2016, dated 2023)

Columns and labels:
Assay type in all cases: in vivo, human
[1] = tested on: blueberry flavor intensity; assay: Blueberry sensory panels; PLS analysis, blueberry flavor intensity (Table 7); details: response Flavor
Protocol: (§1) Sensory analysis was conducted similar to described above for tomatoes and strawberries in Examples 1 and 3. […] Panelists were trained with the scaling methods and were encouraged to return for the remainder of the study. Panelists rated overall liking, texture liking, sweetness, sourness, and flavor intensity using hedonic general Labeled Magnitude Scales (gLMS) (−100 to +100; −100=greatest disliking of any kind, +100=greatest liking of any kind) and intensity gLMS (0 to +100; 0=no sensation, 100=most intense sensation of any kind), which allow for improved comparison between panelists and between years (see Bartoshuk, L. M., et al., 2004 and Bartoshuk, L. M., et al., 2005). […] Ratings were recorded using Compusense software.
(§2) Soluble solids content (SSC), titratable acidity (TA), and volatiles were quantified as described above for tomato and strawberries. […] Elutions were run on an Agilent 7890A Gas Chromatograph Flame Ionization Detector (GC-FID) DB-5 column (30 m length×[…]) for quantification and on an Agilent 7890A Gas Chromatograph coupled to an Agilent 5977A Mass Selective Detector (GC/MSD) for qualification (Agilent, Santa Clara, Calif.). Integrated peak area of each signal was normalized for elution, fitted to relative pure chemical response, corrected for sample mass, and expressed as nanograms per gram fresh weight per hour (ng gFW-1 h-1). […]

sweetness = assay: Blueberry sensory panels; PLS analysis, sweetness (Table 7); details: for PLS Coefficient: response Sweetness
Protocol: Sensory analysis was conducted similar to described above for tomatoes and strawberries in Examples 1 and 3. […] Panelists were trained with the scaling methods and were encouraged to return for the remainder of the study. Panelists rated overall liking, texture liking, sweetness, sourness, and flavor intensity using hedonic general Labeled Magnitude Scales (gLMS) (−100 to +100; −100=greatest disliking of any kind, +100=greatest liking of any kind) and intensity gLMS (0 to +100; 0=no sensation, 100=most intense sensation of any kind), which allow for improved comparison between panelists and between years (see Bartoshuk, L. M., et al., 2004 and Bartoshuk, L. M., et al., 2005). Panelists were also asked to rate the intensity of taste and flavor sensations of a hypothetical ideal blueberry on this scale. Each panelist received two to four berries of five to six genotypes in a single panel in a Williams design, which was generated by Compusense 5.6 (Compusense Inc., Guelph, Ontario, Canada). They were asked to eat the blueberries of each genotype at once, and to take a bite of cracker and sip of water in between samples. Ratings were recorded using Compusense software.
Soluble solids content (SSC), titratable acidity (TA), and volatiles were quantified as described above for tomato and strawberries. The volatiles were collected for two hours via dynamic headspace with HaySep Q 80-100 porous polymer adsorbent (Valco Instruments Company Inc., Houston, Tex.) and eluted with methylene chloride and nonyl acetate as an elution standard. Elutions were run on an Agilent 7890A Gas Chromatograph Flame Ionization Detector (GC-FID) DB-5 column (30 m length×[…]) for quantification and on an Agilent 7890A Gas Chromatograph coupled to an Agilent 5977A Mass Selective Detector (GC/MSD) for qualification (Agilent, Santa Clara, Calif.). Integrated peak area of each signal was normalized for elution, fitted to relative pure chemical response, corrected for sample mass, and expressed as nanograms per gram fresh weight per hour (ng gFW-1 h-1). Response fitting was calculated using the response factor of pure chemical standards (Sigma-Aldrich, St. Louis, Mo.) run on the same instrument.
Pair-wise correlations and significance between sensory measurements and primary bio-chemical components were calculated, with panelist as a random effect. Least Square Means (LSMeans) of the sensory data for each sample were obtained to account of the random effect of panelist. A partial least squares (PLS) analysis was constructed in JMP1 Pro 10 (SAS Institute Inc., Cary, N.C.) to reveal effectors of sensory ratings (see, e.g., Togari N., et al., 1995; Hough, G., et al., 1996; deKermadec, F., et al., 1997; Toscas, P. J., et al., 1999; and Tenenhaus, M., et al., 2005). The response variables (Y) considered corresponded to LSMeans of overall liking, sweetness, sourness, and blueberry flavor intensity. Glucose, fructose, sucrose, TA, pH, and 52 volatile compounds were considered as explanatory variables (X). The inclusion of texture liking was evaluated independently given that no explanatory physical measure was made for sample texture. […] The model was created without texture for analysis.
• Top six and bottom six biochemical measures explaining sensory responses as determined by partial least squares (PLS) analysis. […]

sourness = assay: Blueberry sensory panels; PLS analysis, sourness (Table 7); details: response Sourness
Text: Panelists were trained with the scaling methods and were encouraged to return for the remainder of the study. […] Panelists were also asked to rate the intensity of taste and flavor sensations of a hypothetical ideal blueberry on this scale. Each panelist received two to four berries of five to six genotypes in a single panel in a Williams design, which was generated by Compusense 5.6 (Compusense Inc., Guelph, Ontario, Canada). They were asked to eat the blueberries of each genotype at once, and to take a bite of cracker and sip of water in between samples. Ratings were recorded using Compusense software.
Soluble solids content (SSC), titratable acidity (TA), and volatiles were quantified as described above for tomato and strawberries. […] Integrated peak area of each signal was normalized for elution, fitted to relative pure chemical response, corrected for sample mass, and expressed as nanograms per gram fresh weight per hour (ng gFW-1 h-1). Response fitting was calculated using the response factor of pure chemical standards (Sigma-Aldrich, St. Louis, Mo.) run on the same instrument.
Pair-wise correlations and significance between sensory measurements and primary bio-chemical components were calculated, with panelist as a random effect. […] The inclusion of texture liking was evaluated independently given that no explanatory physical measure was made for sample texture. […]

overall liking = assay: Blueberry sensory panels; PLS analysis, overall liking (Table 7); details: response Overall Liking
Protocol: as §1, §2

[2] = tested on: strawberry flavor intensity; assay: Strawberry consumer panel; correlation of volatiles with strawberry flavor intensity
Protocol: Quantification of volatiles in an elution was performed on an Agilent 7890A Series gas chromatograph (GC) (carrier gas; He at 3.99 mL min^−1; splitless injector, temperature 220° C., injection volume 2 μl) equipped with a DB-5 column ((5%-Phenyl)-methylpolysiloxane, 30 m length×250 μm i.d.×1 μm film thickness; Agilent Technologies, Santa Clara, Calif., USA). Oven temperatures programmed from 40° C. (0.5 min hold) at 5° C. min^−1 to 250° C. (4 min hold). Signals captured with a flame ionization detector (FID) at 280° C. Peaks from FID signal were integrated manually with Chemstation B.04.01 software (Agilent Technologies, Santa Clara, Calif.). Volatile emission (ng gFW^−1 h^−1) calculated based on individual peak area relative to sample elution standard peak area. GC-Mass Spectrometry (MS) analysis of elution on an Agilent 6890N GC in tandem with an Agilent 5975 MS (Agilent Technologies, Santa Clara, Calif., USA) and retention time comparison with authentic standards (Sigma Aldrich, St Louis, Mo., USA) for volatile identification (Schmelz, 2001).
(§3) All consumer panels were approved by the University of Florida Institutional Review Board. Over the course of two annual seasons 166 strawberry consumers (58 male, 108 female) were recruited to evaluate strawberry cultivars. Ages of panelist ranged from 18 to 71, with a median age of 24. Panelists self-classified themselves as 98 White or Caucasian, 11 Black or African-American, 1 Native American, Alaska Native or Aleutian, 41 Asian/Pacific Islander, and 15 Other. An average of 106 (range of 98-113) panelists evaluated between three and five cultivars per session (Tieman, 2012). Fresh, fully-ripe strawberry fruit was removed from overnight 4° C. dark storage and allowed to warm to room temperature prior to sensory analysis. Each panelist was given one to two whole strawberries for evaluation, depending on cultivar availability. Panelist took a bite of each sample, chewed, and swallowed it. Ratings for overall liking and liking for texture were scaled on hedonic general labeled magnitude scale (gLMS) in the context of all pleasure/displeasure experiences. Perceived intensity of sweetness, sourness, and strawberry flavor were scaled in context of all sensory experiences using sensory gLMS (Bartoshuk, 2003; Bartoshuk, 2005; Tieman, 2012). Scales were employed to mediate valid comparisons across subjects and sessions.
Means and standard errors for consumer, physical, and metabolite measurements were determined from all replicates using JMP (Version 8. SAS Institute Inc., Cary, N.C., 1989-2008). Bivariate analysis among individual measurements of samples allowed for linear fit, which includes summary of fit, analysis of variance, t-test, and correlation analysis for density ellipse. […]

[3] = tested on: perceived sweetness intensity; assay: Strawberry consumer panel; initial multiple regression of volatiles against perceived sweetness intensity independent of glucose, fructose or sucrose (Table 5); details: standard least squares; for FRUCTOSE t RATIO: sweetness intensity independent of fructose; for GLUCOSE t RATIO: sweetness intensity independent of glucose; for SUCROSE t RATIO: sweetness intensity independent of sucrose
Protocol: Step-wise multiple regressions of all volatile compounds against perceived intensity of sweetness is performed independent of either glucose, fructose, or sucrose concentration, separately (Table 5).
At least 100 grams or seven berries of each sample were removed from 4° C. dark overnight storage prior to volatile collection. Samples were homogenized in a blender prior to splitting into three 15 gram replicates for immediate capturing of volatile emission and remainder of sample frozen in N2 (I) and stored at −80° C. for later sugar and acid quantification.
Oven temperatures programmed from 40° C. (0.5 min hold) at 5° C. min^−1 to 250° C. (4 min hold). Signals captured with a flame ionization detector (FID) at 280° C. Peaks from FID signal were integrated manually with Chemstation B.04.01 software (Agilent Technologies, Santa Clara, Calif.). Volatile emission (ng gFW^−1 h^−1) calculated based on individual peak area relative to sample elution standard peak area.
as §3, with “Over the course of two annual seasons 166 strawberry consumers (58 male, 108 female) were recruited to evaluate strawberry cultivars.” left out, “An average of 106 (range of 98-113) panelists evaluated between three and five cultivars per session (Tieman, 2012).” left out, “Perceived intensity of sweetness, sourness, and strawberry flavor were scaled in context of all sensory experiences using sensory gLMS (Bartoshuk, 2003; Bartoshuk, 2005; Tieman, 2012).” left out
For the first analysis, individual volatile compound concentrations were regressed using the “enter” method in SPSS Statistics (IBM Corp, Armonk, N.Y., USA).

Structure (SMILES)	PLS Coefficient [1]	PLS Coefficient (sweetness)	PLS Coefficient (sourness)	PLS Coefficient (overall liking)	correlation with flavor intensity [2]	FRUCTOSE t RATIO [3]	GLUCOSE t RATIO [3]	SUCROSE t RATIO [3]	independent enhancement of perception of sweetness (sweetness; multivariate regression analysis)
CC12CCC(CC1)C(C)(C)O2 [1,8-Cineole]	−0.0876	−0.1925	0.1444	−0.1912	–	–	–	–	–
CCCC(=O)OCC [105-54-4]	–	–	–	–	significant positive correlation with flavor intensity	2.533	2.493	0.034	–
CCCC(=O)OC [623-42-7]	–	–	–	–	significant positive correlation with flavor intensity	1.455	1.452	0.419	–
COC1=C(C)OC(C)C1=O (stereo not drawn) [4077-47-8]	–	–	–	–	significant positive correlation with flavor intensity	2.414	2.185	0.299	–
C=CC(C)(O)CCC=C(C)C (stereo not drawn) [Linalool]	–	–	–	–	significant positive correlation with flavor intensity	–	–	–	–
C=C1CC[C@H]2O[C@]2(C)CC[C@@H]2[C@@H]1CC2(C)C [β-Caryophyllene oxide, β-caryophyllene oxide]	0.1527	0.1418	–	0.1455	–	–	–	–	independently enhancing perception of sweetness
